Legend:
Experiment in all cases: relative viability (nuclei count vs DMSO), 5 days (fraction); higher = more cells survive
[1] = compound: CC1=C(CC(=O)O)c2cc(F)ccc2/C1=C\c1ccc([S+](C)[O-])cc1 [Sulindac] + NC(=O)Nc1cc(-c2cccc(F)c2)sc1C(=O)N[C@H]1CCCNC1 [AZD7762] (partner 0.2 µM)
Outline: (§1)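 Relative viability equals treated-well nuclei counts divided by vehicle-well nuclei counts. Counts came from 4× images of lung cancer cell lines grown in 1536-well plates for 5 days after pin-tool dosing on the day after seeding. Dosing used one drug alone or a fixed anchor-drug dose plus five library-drug doses (not always all listed) in √10 steps, and values are medians of duplicate plates.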

[2] = compound: CC1=C(CC(=O)O)c2cc(F)ccc2/C1=C\c1ccc([S+](C)[O-])cc1 [Sulindac] + O=C(CCCCCCC(=O)Nc1ccccc1)NO [Vorinostat] (partner 1 µM)
Outline: as §1

[3] = compound: CC1=C(CC(=O)O)c2cc(F)ccc2/C1=C\c1ccc([S+](C)[O-])cc1 [Sulindac] + O=C(c1cc(Cc2n[nH]c(=O)c3ccccc23)ccc1F)N1CCN(C(=O)C2CC2)CC1 [Olaparib] (partner 8 µM)
Outline: as §1

[4] = compound: CN[C@@H]1C[C@H]2O[C@@](C)([C@@H]1OC)n1c3ccccc3c3c4c(c5c6ccccc6n2c5c31)C(=O)NC4 [Staurosporine] + O=C(CCCCCCC(=O)Nc1ccccc1)NO [Vorinostat] (partner 1 µM)
Outline: as §1

Cell Line: NCI-H2087
- relative viability ([1]; first compound 0.08 µM): 1.73
- relative viability ([1]; first compound 0.253 µM): 1.52
- relative viability ([1]; first compound 0.8 µM): 0.983
- relative viability ([1]; first compound 2.53 µM): 1.48
- relative viability ([1]; first compound 8 µM): 1.4
- relative viability ([2]; first compound 0.08 µM): 1.02
- relative viability ([2]; first compound 0.253 µM): 0.622
- relative viability ([2]; first compound 0.8 µM): 0.561
- relative viability ([2]; first compound 2.53 µM): 0.662
- relative viability ([2]; first compound 8 µM): 0.722
- relative viability ([3]; first compound 0.08 µM): 0.606
- relative viability ([3]; first compound 0.253 µM): 0.722
- relative viability ([3]; first compound 0.8 µM): 0.54
- relative viability ([3]; first compound 2.53 µM): 0.468
- relative viability ([3]; first compound 8 µM): 0.571
- relative viability ([4]; first compound 0.005 µM): 0.628
- relative viability ([4]; first compound 0.01581 µM): 0.407
- relative viability ([4]; first compound 0.05 µM): 0.354
- relative viability ([4]; first compound 0.1581 µM): 0.0753
- relative viability ([4]; first compound 0.5 µM): 0.0552

Cell Line: NCI-H2170
- relative viability ([1]; first compound 0.08 µM): 1.06
- relative viability ([1]; first compound 0.253 µM): 0.91
- relative viability ([1]; first compound 0.8 µM): 0.765
- relative viability ([1]; first compound 2.53 µM): 1.01
- relative viability ([1]; first compound 8 µM): 0.884
- relative viability ([2]; first compound 0.08 µM): 0.937
- relative viability ([2]; first compound 0.253 µM): 0.741
- relative viability ([2]; first compound 0.8 µM): 0.69
- relative viability ([2]; first compound 2.53 µM): 0.833
- relative viability ([2]; first compound 8 µM): 0.924
- relative viability ([3]; first compound 0.08 µM): 0.658
- relative viability ([3]; first compound 0.253 µM): 0.576
- relative viability ([3]; first compound 0.8 µM): 0.493
- relative viability ([3]; first compound 2.53 µM): 0.591
- relative viability ([3]; first compound 8 µM): 0.626
- relative viability ([4]; first compound 0.005 µM): 0.875
- relative viability ([4]; first compound 0.05 µM): 0.488
- relative viability ([4]; first compound 0.1581 µM): 0.0663
- relative viability ([4]; first compound 0.5 µM): 0.0848

Cell Line: HCC-78
- relative viability ([1]; first compound 0.08 µM): 0.614
- relative viability ([1]; first compound 0.253 µM): 0.6
- relative viability ([1]; first compound 0.8 µM): 0.557
- relative viability ([1]; first compound 2.53 µM): 0.599
- relative viability ([1]; first compound 8 µM): 0.722
- relative viability ([2]; first compound 0.08 µM): 0.363
- relative viability ([2]; first compound 0.253 µM): 0.415
- relative viability ([2]; first compound 0.8 µM): 0.433
- relative viability ([2]; first compound 2.53 µM): 0.455
- relative viability ([2]; first compound 8 µM): 0.462
- relative viability ([3]; first compound 0.08 µM): 0.972
- relative viability ([3]; first compound 0.253 µM): 0.812
- relative viability ([3]; first compound 0.8 µM): 0.763
- relative viability ([3]; first compound 2.53 µM): 0.784
- relative viability ([3]; first compound 8 µM): 0.686
- relative viability ([4]; first compound 0.005 µM): 0.475
- relative viability ([4]; first compound 0.01581 µM): 0.377
- relative viability ([4]; first compound 0.05 µM): 0.388
- relative viability ([4]; first compound 0.1581 µM): 0.367
- relative viability ([4]; first compound 0.5 µM): 0.279

Cell Line: NCI-H1395
- relative viability ([1]; first compound 0.08 µM): 0.387
- relative viability ([1]; first compound 0.253 µM): 0.378
- relative viability ([1]; first compound 0.8 µM): 0.4
- relative viability ([1]; first compound 2.53 µM): 0.401
- relative viability ([1]; first compound 8 µM): 0.401
- relative viability ([2]; first compound 0.08 µM): 0.662
- relative viability ([2]; first compound 0.253 µM): 0.832
- relative viability ([2]; first compound 0.8 µM): 0.641
- relative viability ([2]; first compound 2.53 µM): 0.682
- relative viability ([2]; first compound 8 µM): 0.959
- relative viability ([3]; first compound 0.08 µM): 0.43
- relative viability ([3]; first compound 0.253 µM): 0.424
- relative viability ([3]; first compound 0.8 µM): 0.467
- relative viability ([3]; first compound 2.53 µM): 0.45
- relative viability ([3]; first compound 8 µM): 0.483
- relative viability ([4]; first compound 0.005 µM): 0.447
- relative viability ([4]; first compound 0.01581 µM): 0.264
- relative viability ([4]; first compound 0.05 µM): 0.288
- relative viability ([4]; first compound 0.1581 µM): 0.299
- relative viability ([4]; first compound 0.5 µM): 0.228
